Results published in patent US20130039993A1, “ARGON-BASED INHALABLE GASEOUS MEDICAMENT AGAINST PERIPHERAL ORGAN DEFICIENCIES OR FAILURES” (L'Air Liquide, Societe Anonyme pour l'Etude et …, priority 2010, published 2013).

Columns and labels:
[1] = tested on: kidneys isolated from rats; assay: Renal function of grafted rat kidneys preserved 6 hours in a gaseous atmosphere (creatinine clearance, 24-hour albuminuria); format: in vivo, Wistar rats; settings: days D7 and D14 after graft, kidney preserved 6 hours in 100% by volume gas; for creatinine clearance of the grafted kidneys: estimated, related back to 100 g of weight, FIG. 1
Excerpt: (§1) To do this, kidneys isolated from rats intended for a transplantation were used.
(§2) 120 Wistar rats, weighing between 200 g and 250 g, were used while adhering to the Guide for the Care and Use of Laboratory Animals published by the National Institutes of Health.
(§3) The animals were operated upon under general anesthesia and the left kidneys were removed and then preserved in several gaseous atmospheres, namely: • Group A (according to the invention): argon (100% by volume) • Group B (comparative): xenon (100% by volume) • Group C (1st control): air (i.e. essentially N2/O2 mixture) • Group D (2nd control): nitrogen
(§4) The kidneys of a rat are preserved therein for 6 hours before being grafted onto another anesthetized rat according to the conditions previously described. The rats are kept under observation for 14 days.
(§5) In order to carry out an evaluation of the effectiveness of the protection produced by the various gases tested, the renal function and renal morphology of the grafted kidneys were examined.
The renal function was evaluated by calculating the creatinine clearance estimated and related back to 100 g of weight, and by measuring the 24-hour albuminuria.

[2] = tested on: kidneys isolated from rats; assay: Renal morphology of grafted rat kidneys preserved 6 hours in a gaseous atmosphere (standard histology, histochemistry with anti-active caspase-3 and anti-CD10 antibodies); format: in vivo, Wistar rats; settings: grafted kidneys preserved 6 hours in 100% by volume gas; for kidneys showing cell lysis with subconfluent coagulation necrosis (standard histology): share of kidneys of the group
Excerpt: as §1, §2, §3, §4, §5
The renal morphology was evaluated by standard histology and histochemistry using anti-active caspase-3 and anti-CD10 antibodies.

## [Ar] [argon]
[1]; 24-hour albuminuria, FIG. 2
  albuminuria: half as much in group A than in the other groups
[1]
  creatinine clearance of the grafted kidneys: preserved a good creatinine clearance
[2]; anti-CD10 antibody
  CD10 labeling (histochemistry; preservation of the tubule functional structure): very well preserved
[2]; anti-active caspase-3 antibody
  caspase-3 labeling (histochemistry; cell degeneration): discrete and in foci
[2]
  kidneys showing cell lysis with subconfluent coagulation necrosis (standard histology): no kidney of group A under an argon atmosphere exhibited any sign of cell lysis or necrosis

## [Xe] [xenon, reference compound]
[1]
  creatinine clearance of the grafted kidneys: slightly better with xenon, but significantly lower compared with argon
[2]
  kidneys showing cell lysis with subconfluent coagulation necrosis (standard histology): ⅓
